# Results as given in BindingDB's records for doi:10.1021/cc100076k (Universidade Federal De SaO Carlo, 2010).
# Biological target: T1, Cathepsin L2 (Homo sapiens, UniProt O60911)
# T1 sequence (O60911 whole entry): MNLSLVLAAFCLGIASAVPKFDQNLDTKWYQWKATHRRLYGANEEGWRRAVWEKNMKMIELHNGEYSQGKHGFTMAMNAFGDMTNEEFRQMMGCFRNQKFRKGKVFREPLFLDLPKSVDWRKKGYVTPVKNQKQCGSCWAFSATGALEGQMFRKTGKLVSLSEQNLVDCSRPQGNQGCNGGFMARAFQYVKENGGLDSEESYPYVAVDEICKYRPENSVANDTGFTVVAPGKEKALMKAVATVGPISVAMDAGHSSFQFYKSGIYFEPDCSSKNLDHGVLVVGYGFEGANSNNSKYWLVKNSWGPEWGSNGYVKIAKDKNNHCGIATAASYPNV
# Assay: Inhibition Activity Assay
# Settings: pH 5.5; 27 °C
# Excerpt: Recombinant human cathepsin V was expressed and purified as described previously.
row,IC50,SMILES
1,2.9 µM,"O=c1cc(-c2ccc(-c3ccccc3)cc2)oc2ccc(F)cc12 [Flavonid, 6[3,6]]"
2,> 50 µM,"COc1cccc(Cl)c1-c1cc(=O)c2ccc(F)cc2o1 [Flavonid, 6b]"
3,19.2 µM,"COc1ccc2oc(-c3ccc(-c4ccccc4)cc3)cc(=O)c2c1 [Flavonid, 6[4,6]]"
4,> 50 µM,"COc1ccc2oc(-c3ccc(OC)c(OC)c3OC)cc(=O)c2c1 [Flavonid, 6[4,3]]"
5,> 50 µM,"O=c1cc(-c2c(F)cccc2Cl)oc2cc(F)ccc12 [Flavonid, 6e]"
6,19 µM,"COc1ccc(-c2cc(=O)c3c(OC)cc(OC)cc3o2)c(OC)c1 [Flavonid, 6[2,2]]"
7,1.2 µM,"COc1ccc(-c2cc(=O)c3cc(Br)ccc3o2)c(OC)c1 [Flavonid, 6d]"
8,> 50 µM,"COc1cc(OC)c2c(=O)cc(-c3ccc(OC)c(OC)c3OC)oc2c1 [Flavonid, 6[2,3]]"
9,0.8 µM,"COc1ccc(-c2cc(=O)c3cc(F)ccc3o2)cc1 [Flavonid, 6[3,1]]"
10,> 50 µM,"COc1cc(OC)c2c(=O)cc(-c3ccc(-c4ccccc4)cc3)oc2c1 [Flavonid, 6[2,6]]"
11,1.6 µM,"COc1ccc(-c2cc(=O)c3cc(F)ccc3o2)c(OC)c1 [Flavonid, 6[3,2]]"
12,> 50 µM,"COc1cccc(Cl)c1/C=C/C(=O)c1ccc(F)cc1O [Flavonid, 5b]"
13,> 50 µM,"COc1ccc(-c2cc(=O)c3cc(OC)ccc3o2)c(OC)c1 [Flavonid, 6[4,2]]"
14,4.1 µM,"COc1ccc(-c2cc(=O)c3cc(F)ccc3o2)c(OC)c1OC [Flavonid, 6[3,3]]"
15,12 µM,COc1ccc(-c2cc(=O)c3cc(OC)ccc3o2)cc1 [6-methoxy-2-(4-methoxyphenyl)-1-benzopyran-4-one]
16,> 50 µM,"COc1ccc(C(=O)/C=C/c2ccc(OC)cc2OC)c(O)c1 [Flavonid, 5a]"
